Laboratory results published in patent publication US12295936B2, “Immunomodulating urea azalides” (Zoetis Services LLC, priority 2020, dated 2025).
Like-named read-outs stand apart in the source and are kept apart here.

Experiments:
[1] = test system: TNF-α; assay: LPS-stimulated whole bovine blood assay, MSD cytokine detection; format: cell-based; conditions: Bos taurus, LPS-stimulated bovine whole blood; read-out: TNF-α (IC50 μM)
[2] = test system: IL-1β; assay: as above; format: cell-based; conditions: overstimulation of IL-1β, LPS-stimulated bovine whole blood
[3] = test system: BRD pathogens, M. haemolytica and P. multocida; assay: MIC screening panel of BRD pathogens (antibacterial / non-antibacterial)
[4] = test system: IL-6; assay: LPS-stimulated whole bovine blood assay, MSD cytokine detection; format: cell-based; conditions: Bos taurus, LPS-stimulated bovine whole blood; read-out: IL-6 (IC50 μM)
Excerpt: In order to correlate RNA sequencing data to cytokine changes the whole blood assay was utilized. […] The enhancement result represents an overall stimulation of cytokine levels due to cellular stress or potential toxicity with increasing concentrations of the compound, representing a typical bell shape response curve for immunomodulatory activity.

[5] = read-out: antibacterial / non-antibacterial (MIC for the BRD pathogens)

Row | SMILES | IC50 [1] [µM] | IL-1β OS of LPS [2] [µM] | MIC ([3]; read-out: MIC ≤64 μg/mL for at least one of the bacterial strains (flag * at Ex #)) [µg/mL] | IC50 [4] [µM] | MIC [3, 5] [µg/mL]
1 | CC[C@H]1OC(=O)[C@H](C)[C@@H](O[C@H]2C[C@@](C)(OC)[C@](O)(CN3CCC(F)(F)CC3)[C@H](C)O2)[C@H](C)[C@@H](O[C@@H]2O[C@H](C)C[C@H](N(C)C(=O)N(C)c3ccccc3)[C@H]2O)[C@](C)(O)C[C@@H](C)CN[C@H](C)[C@@H](O)[C@]1(C)O [Example J-17, 1-((2S,3R,4S,6R)-2-(((2R,3S,4R,5R,8R,10R,11R,12S,13S,14R)-13-(((2R,4R,5S,6S)-5-((4,4-difluoropiperidin-1-yl)methyl)-5-hydroxy-4-methoxy-4,6-dimethyltetrahydro-2H-pyran-2-yl)oxy)-2-ethyl-3,4,10-trihydroxy-3,5,8,10,12,14-hexamethyl-15-oxo-1-oxa-6-azacyclopentadecan-11-yl)oxy)-3-hydroxy-6-methyltetrahydro-2H-pyran-4-yl)-1,3-dimethyl-3-phenylurea] | 14 | 40 | < 64 | 25 | 
2 | CC[C@H]1OC(=O)[C@H](C)[C@@H](O[C@H]2C[C@@](C)(OC)[C@](O)(CN3CC(F)(F)C3)[C@H](C)O2)[C@H](C)[C@@H](O[C@@H]2O[C@H](C)C[C@H](N(C)C(=O)N(C)c3ccccc3)[C@H]2O)[C@](C)(O)C[C@@H](C)CN[C@H](C)[C@@H](O)[C@]1(C)O [Example J-15, 1-((2S,3R,4S,6R)-2-(((2R,3S,4R,5R,8R,10R,11R,12S,13S,14R)-13-(((2R,4R,5S,6S)-5-((3,3-difluoroazetidin-1-yl)methyl)-5-hydroxy-4-methoxy-4,6-dimethyltetrahydro-2H-pyran-2-yl)oxy)-2-ethyl-3,4,10-trihydroxy-3,5,8,10,12,14-hexamethyl-15-oxo-1-oxa-6-azacyclopentadecan-11-yl)oxy)-3-hydroxy-6-methyltetrahydro-2H-pyran-4-yl)-1,3-dimethyl-3-phenylurea] | 14 | 16 |  | 28 | > 64
3 | CCCNC[C@]1(O)[C@H](C)O[C@@H](O[C@H]2[C@H](C)[C@@H](O[C@@H]3O[C@H](C)C[C@H](N(C)C(=O)Nc4cccc(Cl)c4)[C@H]3O)[C@](C)(O)C[C@@H](C)CN[C@H](C)[C@@H](O)[C@](C)(O)[C@@H](CC)OC(=O)[C@@H]2C)C[C@@]1(C)OC [Example H-88, 3-(3-chlorophenyl)-1-((2S,3R,4S,6R)-2-(((2R,3S,4R,5R,8R,10R,11R,12S,13S,14R)-2-ethyl-3,4,10-trihydroxy-13-(((2R,4R,5S,6S)-5-hydroxy-4-methoxy-4,6-dimethyl-5-((propylamino)methyl)tetrahydro-2H-pyran-2-yl)oxy)-3,5,8,10,12,14-hexamethyl-15-oxo-1-oxa-6-azacyclopentadecan-11-yl)oxy)-3-hydroxy-6-methyltetrahydro-2H-pyran-4-yl)-1-methylurea] | 56 | 13 |  | 92 | > 64
4 | CCCCNC[C@]1(O)[C@H](C)O[C@@H](O[C@H]2[C@H](C)[C@@H](O[C@@H]3O[C@H](C)C[C@H](N(C)C(=O)N(C)c4ccccc4)[C@H]3O)[C@](C)(O)C[C@@H](C)CN[C@H](C)[C@@H](O)[C@](C)(O)[C@@H](CC)OC(=O)[C@@H]2C)C[C@@]1(C)OC [Example H-28, 1-((2S,3R,4S,6R)-2-(((2R,3S,4R,5R,8R,10R,11R,12S,13S,14R)-13-(((2R,4R,5S,6S)-5-((butylamino)methyl)-5-hydroxy-4-methoxy-4,6-dimethyltetrahydro-2H-pyran-2-yl)oxy)-2-ethyl-3,4,10-trihydroxy-3,5,8,10,12,14-hexamethyl-15-oxo-1-oxa-6-azacyclopentadecan-11-yl)oxy)-3-hydroxy-6-methyltetrahydro-2H-pyran-4-yl)-1,3-dimethyl-3-phenylurea] | 13 | 17 |  | 8 | > 64
5 | CC[C@H]1OC(=O)[C@H](C)[C@@H](O[C@H]2C[C@@](C)(OC)[C@](O)(CN3CCCC3)[C@H](C)O2)[C@H](C)[C@@H](O[C@@H]2O[C@H](C)C[C@H](N(C)C(=O)N(C)c3ccccc3)[C@H]2O)[C@](C)(O)C[C@@H](C)CN[C@H](C)[C@@H](O)[C@]1(C)O [Example J-12, 1-((2S,3R,4S,6R)-2-(((2R,3S,4R,5R,8R,10R,11R,12S,13S,14R)-2-ethyl-3,4,10-trihydroxy-13-(((2R,4R,5S,6S)-5-hydroxy-4-methoxy-4,6-dimethyl-5-(pyrrolidin-1-ylmethyl)tetrahydro-2H-pyran-2-yl)oxy)-3,5,8,10,12,14-hexamethyl-15-oxo-1-oxa-6-azacyclopentadecan-11-yl)oxy)-3-hydroxy-6-methyltetrahydro-2H-pyran-4-yl)-1,3-dimethyl-3-phenylurea] | 34 | 22 |  | 126 | > 64
6 | CC[C@H]1OC(=O)[C@H](C)[C@@H](O[C@H]2C[C@@](C)(OC)[C@](O)(CNCCC3CCOCC3)[C@H](C)O2)[C@H](C)[C@@H](O[C@@H]2O[C@H](C)C[C@H](N(C)C(=O)N(C)c3ccccc3)[C@H]2O)[C@](C)(O)C[C@@H](C)CN[C@H](C)[C@@H](O)[C@]1(C)O [Example H-33, 1-((2S,3R,4S,6R)-2-(((2R,3S,4R,5R,8R,10R,11R,12S,13S,14R)-2-ethyl-3,4,10-trihydroxy-13-(((2R,4R,5S,6S)-5-hydroxy-4-methoxy-4,6-dimethyl-5-(((2-(tetrahydro-2H-pyran-4-yl)ethyl)amino)methyl)tetrahydro-2H-pyran-2-yl)oxy)-3,5,8,10,12,14-hexamethyl-15-oxo-1-oxa-6-azacyclopentadecan-11-yl)oxy)-3-hydroxy-6-methyltetrahydro-2H-pyran-4-yl)-1,3-dimethyl-3-phenylurea] | 37 | 6 |  | 57 | > 64
7 | CC[C@H]1OC(=O)[C@H](C)[C@@H](O[C@H]2C[C@@](C)(OC)[C@@H](O)[C@H](C)O2)[C@H](C)[C@@H](O[C@@H]2O[C@H](C)C[C@H](N(C)C(=O)Nc3ccc(F)cc3)[C@H]2O)[C@](C)(O)C[C@@H](C)CN(C)[C@H](C)[C@@H](O)[C@]1(C)O [Example B-9, 1-((2S,3R,4S,6R)-2-(((2R,3S,4R,5R,8R,10R,11R,12S,13S,14R)-2-ethyl-3,4,10-trihydroxy-13-(((2R,4R,5S,6S)-5-hydroxy-4-methoxy-4,6-dimethyltetrahydro-2H-pyran-2-yl)oxy)-3,5,6,8,10,12,14-heptamethyl-15-oxo-1-oxa-6-azacyclopentadecan-11-yl)oxy)-3-hydroxy-6-methyltetrahydro-2H-pyran-4-yl)-3-(4-fluorophenyl)-1-methylurea] | 107 | 28 |  | 116 | > 64
8 | CCCNC[C@]1(O)[C@H](C)O[C@@H](O[C@H]2[C@H](C)[C@@H](O[C@@H]3O[C@H](C)C[C@H](N(C)C(=O)N(C)c4nccnn4)[C@H]3O)[C@](C)(O)C[C@@H](C)CN[C@H](C)[C@@H](O)[C@](C)(O)[C@@H](CC)OC(=O)[C@@H]2C)C[C@@]1(C)OC [Example H-56, 1-((2S,3R,4S,6R)-2-(((2R,3S,4R,5R,8R,10R,11R,12S,13S,14R)-2-ethyl-3,4,10-trihydroxy-13-(((2R,4R,5S,6S)-5-hydroxy-4-methoxy-4,6-dimethyl-5-((propylamino)methyl)tetrahydro-2H-pyran-2-yl)oxy)-3,5,8,10,12,14-hexamethyl-15-oxo-1-oxa-6-azacyclopentadecan-11-yl)oxy)-3-hydroxy-6-methyltetrahydro-2H-pyran-4-yl)-1,3-dimethyl-3-(1,2,4-triazin-3-yl)urea] | 79 | 18 |  | 6 | > 64
9 | CC[C@H]1OC(=O)[C@H](C)[C@@H](O[C@H]2C[C@@](C)(OC)[C@](O)(CN3CCC(S(C)(=O)=O)CC3)[C@H](C)O2)[C@H](C)[C@@H](O[C@@H]2O[C@H](C)C[C@H](N(C)C(=O)N(C)c3ccccc3)[C@H]2O)[C@](C)(O)C[C@@H](C)CN[C@H](C)[C@@H](O)[C@]1(C)O [Example J-21, 1-((2S,3R,4S,6R)-2-(((2R,3S,4R,5R,8R,10R,11R,12S,13S,14R)-2-ethyl-3,4,10-trihydroxy-13-(((2R,4R,5S,6S)-5-hydroxy-4-methoxy-4,6-dimethyl-5-((4-(methylsulfonyl)piperidin-1-yl)methyl)tetrahydro-2H-pyran-2-yl)oxy)-3,5,8,10,12,14-hexamethyl-15-oxo-1-oxa-6-azacyclopentadecan-11-yl)oxy)-3-hydroxy-6-methyltetrahydro-2H-pyran-4-yl)-1,3-dimethyl-3-phenylurea] | 65 | 20 |  | 75 | > 64
10 | CC[C@H]1OC(=O)[C@H](C)[C@@H](O[C@H]2C[C@@](C)(OC)[C@](O)(CNCC(C)C)[C@H](C)O2)[C@H](C)[C@@H](O[C@@H]2O[C@H](C)C[C@H](N(C)C(=O)N(C)c3ccccc3)[C@H]2O)[C@](C)(O)C[C@@H](C)CN[C@H](C)[C@@H](O)[C@]1(C)O [Example H-24, 1-((2S,3R,4S,6R)-2-(((2R,3S,4R,5R,8R,10R,11R,12S,13S,14R)-2-ethyl-3,4,10-trihydroxy-13-(((2R,4R,5S,6S)-5-hydroxy-5-((isobutylamino)methyl)-4-methoxy-4,6-dimethyltetrahydro-2H-pyran-2-yl)oxy)-3,5,8,10,12,14-hexamethyl-15-oxo-1-oxa-6-azacyclopentadecan-11-yl)oxy)-3-hydroxy-6-methyltetrahydro-2H-pyran-4-yl)-1,3-dimethyl-3-phenylurea] | 23 | 16 |  | 30 | > 64
